Test results published in patent publication EP4745137A1 (Gluetacs Therapeutics (Shanghai) Co., Ltd., priority 2023, dated 2025).

How the values were obtained:
WEE1 = target: T1, WEE1 (Homo sapiens, UniProt P30291+Q96SW2); experiment: Western-blot assay of substrate protein degradation in hPBMCs, WEE1; assay type: cell-based; details: 24 hours of compound treatment
T1 construct: endogenous in cells; host or cells: hPBMCs (Milecell Biotechnologies)

IKZF1 = target: T2, IKZF1 (Homo sapiens, UniProt Q13422+Q96SW2); experiment: Western-blot assay of substrate protein degradation in hPBMCs, IKZF1; assay type: cell-based; details: 24 hours of compound treatment
T2 construct: endogenous in cells; host or cells: hPBMCs (Milecell Biotechnologies)

IKZF2 = target: T3, IKZF2 (Homo sapiens, UniProt Q96SW2+Q9UKS7); experiment: Western-blot assay of substrate protein degradation in hPBMCs, IKZF2; assay type: cell-based; details: 24 hours of compound treatment
T3 construct: endogenous in cells; host or cells: hPBMCs (Milecell Biotechnologies)

IKZF3 = target: T4, IKZF3 (Homo sapiens, UniProt Q96SW2+Q9UKT9); experiment: Western-blot assay of substrate protein degradation in hPBMCs, IKZF3; assay type: cell-based; details: 24 hours of compound treatment
T4 construct: endogenous in cells; host or cells: hPBMCs (Milecell Biotechnologies)

CK1α = target: T5, CK1α (Homo sapiens, UniProt P48729+Q96SW2); experiment: Western-blot assay of substrate protein degradation in hPBMCs, CK1α; assay type: cell-based; details: 24 hours of compound treatment
T5 construct: endogenous in cells; host or cells: hPBMCs (Milecell Biotechnologies)

GSPT1 = target: T6, GSPT1 (Homo sapiens, UniProt P15170+Q96SW2); experiment: Western-blot assay of substrate protein degradation in hPBMCs, GSPT1; assay type: cell-based; details: 24 hours of compound treatment
T6 construct: endogenous in cells; host or cells: hPBMCs (Milecell Biotechnologies)

[1] = target: T7, human Cereblon WT GST-tagged protein (Homo sapiens, UniProt Q96SW2); experiment: CRBN-binding affinity by HTRF (CEREBLON BINDING kit); details: HTRF inhibitory activity, CEREBLON BINDING kit; read-out: HTRF IC50
T7 construct: purchased CISBIO 64BDCRBNPEH

[2] = system: Human acute T lymphocytic leukemia cells (Molt-4); experiment: Tumor cell proliferation inhibition (CellTiter-Meiluncell Luminescent Cell Viability Assay), Molt-4; details: MOLT-4, 96 h, read-out: inhibitory activity (IC50, nM) against tumor cells proliferation, Molt 4
[3] = compounds tested at 50 nM and 500 nM (concentration of the table not stated)
[4] = 50 nM and 500 nM tested (concentration behind the class not stated)

T4 sequence (Q9UKT9 whole entry): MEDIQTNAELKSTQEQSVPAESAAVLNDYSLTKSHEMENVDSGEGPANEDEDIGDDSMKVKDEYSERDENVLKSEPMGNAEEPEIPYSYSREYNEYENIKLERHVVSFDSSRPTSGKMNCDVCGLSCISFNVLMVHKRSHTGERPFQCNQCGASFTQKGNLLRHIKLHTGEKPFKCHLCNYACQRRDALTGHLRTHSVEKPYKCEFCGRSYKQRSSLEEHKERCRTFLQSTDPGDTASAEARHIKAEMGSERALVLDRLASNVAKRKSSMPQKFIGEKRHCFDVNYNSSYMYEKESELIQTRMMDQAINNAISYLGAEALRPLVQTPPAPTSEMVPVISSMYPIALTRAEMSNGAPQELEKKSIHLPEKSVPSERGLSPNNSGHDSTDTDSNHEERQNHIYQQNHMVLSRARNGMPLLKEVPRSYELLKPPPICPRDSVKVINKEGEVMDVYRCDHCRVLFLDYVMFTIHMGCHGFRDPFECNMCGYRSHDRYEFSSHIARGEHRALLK
T4 sequence (Q96SW2 whole entry): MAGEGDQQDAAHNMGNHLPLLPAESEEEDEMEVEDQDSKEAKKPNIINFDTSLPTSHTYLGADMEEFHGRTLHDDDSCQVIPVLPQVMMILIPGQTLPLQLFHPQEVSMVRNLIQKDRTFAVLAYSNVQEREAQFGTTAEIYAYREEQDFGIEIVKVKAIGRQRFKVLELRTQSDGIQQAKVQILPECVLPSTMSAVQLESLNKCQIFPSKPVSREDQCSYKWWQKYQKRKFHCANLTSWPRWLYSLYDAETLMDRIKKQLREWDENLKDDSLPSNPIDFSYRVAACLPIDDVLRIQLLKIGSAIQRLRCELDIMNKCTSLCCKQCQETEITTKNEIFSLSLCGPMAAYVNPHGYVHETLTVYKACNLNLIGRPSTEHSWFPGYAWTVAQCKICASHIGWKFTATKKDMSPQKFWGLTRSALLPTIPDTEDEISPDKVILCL
T4 sequence (Q16531 whole entry partner): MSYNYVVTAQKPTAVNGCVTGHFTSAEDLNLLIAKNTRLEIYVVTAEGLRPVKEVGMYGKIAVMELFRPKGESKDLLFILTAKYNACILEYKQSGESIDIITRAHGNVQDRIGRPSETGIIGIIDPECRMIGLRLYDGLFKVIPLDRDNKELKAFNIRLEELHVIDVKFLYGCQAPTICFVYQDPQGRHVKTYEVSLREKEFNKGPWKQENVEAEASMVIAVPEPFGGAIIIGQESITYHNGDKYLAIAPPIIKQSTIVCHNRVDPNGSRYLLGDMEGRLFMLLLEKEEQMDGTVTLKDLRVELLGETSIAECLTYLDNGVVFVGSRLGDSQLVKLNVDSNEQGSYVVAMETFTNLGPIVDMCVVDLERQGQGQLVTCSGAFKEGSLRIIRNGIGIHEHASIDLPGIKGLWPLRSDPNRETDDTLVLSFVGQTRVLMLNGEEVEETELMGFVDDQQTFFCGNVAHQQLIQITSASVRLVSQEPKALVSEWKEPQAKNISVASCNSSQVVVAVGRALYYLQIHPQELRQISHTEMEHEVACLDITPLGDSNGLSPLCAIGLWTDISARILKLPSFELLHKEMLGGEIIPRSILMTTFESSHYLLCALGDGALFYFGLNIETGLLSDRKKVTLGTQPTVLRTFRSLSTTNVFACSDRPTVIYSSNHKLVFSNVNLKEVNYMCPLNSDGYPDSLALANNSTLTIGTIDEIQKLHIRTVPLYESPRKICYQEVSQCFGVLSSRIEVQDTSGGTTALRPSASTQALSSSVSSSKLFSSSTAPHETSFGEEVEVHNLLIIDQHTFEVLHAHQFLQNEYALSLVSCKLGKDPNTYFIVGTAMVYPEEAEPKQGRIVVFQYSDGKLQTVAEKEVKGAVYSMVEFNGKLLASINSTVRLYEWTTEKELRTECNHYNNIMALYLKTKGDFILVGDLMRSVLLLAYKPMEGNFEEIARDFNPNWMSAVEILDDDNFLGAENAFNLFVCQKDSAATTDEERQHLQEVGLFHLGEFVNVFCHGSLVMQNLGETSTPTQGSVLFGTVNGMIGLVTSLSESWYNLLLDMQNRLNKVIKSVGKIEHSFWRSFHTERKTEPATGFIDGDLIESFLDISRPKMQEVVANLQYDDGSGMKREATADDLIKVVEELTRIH
T5 sequence (P48729 whole entry): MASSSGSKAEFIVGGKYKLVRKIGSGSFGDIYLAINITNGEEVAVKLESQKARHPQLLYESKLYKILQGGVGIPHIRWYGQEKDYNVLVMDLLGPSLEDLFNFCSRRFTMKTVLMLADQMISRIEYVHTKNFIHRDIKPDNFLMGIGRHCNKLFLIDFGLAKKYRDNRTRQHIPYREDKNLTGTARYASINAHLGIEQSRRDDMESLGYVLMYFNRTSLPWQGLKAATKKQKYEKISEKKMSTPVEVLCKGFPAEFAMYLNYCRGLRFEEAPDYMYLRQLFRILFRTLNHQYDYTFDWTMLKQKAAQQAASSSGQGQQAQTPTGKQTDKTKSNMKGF
T5 sequence (Q96SW2 whole entry): as the sequence (Q96SW2 whole entry) above
T5 sequence (Q16531 whole entry partner): as the sequence (Q16531 whole entry partner) above
T6 sequence (P15170 whole entry): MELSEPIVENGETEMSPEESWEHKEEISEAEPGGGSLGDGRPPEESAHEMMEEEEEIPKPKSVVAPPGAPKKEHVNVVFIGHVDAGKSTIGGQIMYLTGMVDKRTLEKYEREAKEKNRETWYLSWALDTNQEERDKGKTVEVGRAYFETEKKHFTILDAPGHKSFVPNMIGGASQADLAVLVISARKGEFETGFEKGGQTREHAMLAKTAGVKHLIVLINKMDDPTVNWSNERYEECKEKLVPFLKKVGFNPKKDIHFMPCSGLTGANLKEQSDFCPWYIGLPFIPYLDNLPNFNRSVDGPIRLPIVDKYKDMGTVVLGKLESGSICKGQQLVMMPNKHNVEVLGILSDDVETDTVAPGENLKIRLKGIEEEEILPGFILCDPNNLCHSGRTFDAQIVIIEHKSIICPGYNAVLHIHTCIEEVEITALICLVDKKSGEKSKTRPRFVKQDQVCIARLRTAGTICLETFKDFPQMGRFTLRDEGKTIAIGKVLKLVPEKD
T6 sequence (Q96SW2 whole entry): as the sequence (Q96SW2 whole entry) above
T6 sequence (Q16531 whole entry partner): as the sequence (Q16531 whole entry partner) above
T7 sequence (Q96SW2 whole entry): as the sequence (Q96SW2 whole entry) above
T1 sequence (P30291 whole entry): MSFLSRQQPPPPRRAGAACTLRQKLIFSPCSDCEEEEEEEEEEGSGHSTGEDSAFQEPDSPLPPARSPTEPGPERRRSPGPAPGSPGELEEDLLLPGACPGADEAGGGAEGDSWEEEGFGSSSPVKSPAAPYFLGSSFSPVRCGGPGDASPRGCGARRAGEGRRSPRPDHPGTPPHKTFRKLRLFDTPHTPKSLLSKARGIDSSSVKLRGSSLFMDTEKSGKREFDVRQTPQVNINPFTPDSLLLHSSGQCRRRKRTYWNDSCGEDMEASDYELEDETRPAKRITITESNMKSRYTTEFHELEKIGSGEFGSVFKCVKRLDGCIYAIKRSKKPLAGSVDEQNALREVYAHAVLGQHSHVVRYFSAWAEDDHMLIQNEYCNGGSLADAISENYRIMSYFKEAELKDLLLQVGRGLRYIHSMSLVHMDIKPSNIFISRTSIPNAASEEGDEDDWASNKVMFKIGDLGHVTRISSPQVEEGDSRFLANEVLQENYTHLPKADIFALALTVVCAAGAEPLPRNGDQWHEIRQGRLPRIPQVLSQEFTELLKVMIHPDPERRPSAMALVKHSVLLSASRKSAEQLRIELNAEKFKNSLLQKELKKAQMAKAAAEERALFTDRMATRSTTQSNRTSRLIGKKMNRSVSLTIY
T1 sequence (Q96SW2 whole entry): as the sequence (Q96SW2 whole entry) above
T1 sequence (Q16531 whole entry partner): as the sequence (Q16531 whole entry partner) above
T3 sequence (Q9UKS7 whole entry): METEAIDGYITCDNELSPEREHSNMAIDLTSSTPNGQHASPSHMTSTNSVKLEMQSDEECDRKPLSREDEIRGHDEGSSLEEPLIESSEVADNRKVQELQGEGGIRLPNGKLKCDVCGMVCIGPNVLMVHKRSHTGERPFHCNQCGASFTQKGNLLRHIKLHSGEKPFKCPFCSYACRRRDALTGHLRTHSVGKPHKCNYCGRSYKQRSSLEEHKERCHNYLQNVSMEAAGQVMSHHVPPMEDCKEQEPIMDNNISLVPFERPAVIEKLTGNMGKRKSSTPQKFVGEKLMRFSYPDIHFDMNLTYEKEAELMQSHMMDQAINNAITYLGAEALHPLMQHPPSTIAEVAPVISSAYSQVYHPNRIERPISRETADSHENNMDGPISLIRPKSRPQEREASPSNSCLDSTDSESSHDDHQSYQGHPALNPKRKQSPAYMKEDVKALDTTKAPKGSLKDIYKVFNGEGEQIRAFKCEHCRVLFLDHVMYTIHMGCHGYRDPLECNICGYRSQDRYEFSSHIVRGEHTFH
T3 sequence (Q96SW2 whole entry): as the sequence (Q96SW2 whole entry) above
T3 sequence (Q16531 whole entry partner): as the sequence (Q16531 whole entry partner) above

| Compound | IC50 [1] | IC50 [2] | Weel substrate protein remaining % (WEE1; [3]) | IKZF 1 substrate protein remaining % (IKZF1; [3]) | IKZF2 substrate protein remaining % (IKZF2; [3]) | IKZF3 substrate protein remaining % (IKZF3; [3]) | CK1a substrate protein remaining % (CK1α; [3]) | GSPT1 substrate protein remaining % (GSPT1; [3]) | Weel substrate protein remaining % (WEE1; [4]) | IKZF 1 substrate protein remaining % (IKZF1; [4]) | IKZF2 substrate protein remaining % (IKZF2; [4]) | IKZF3 substrate protein remaining % (IKZF3; [4]) | CK1a substrate protein remaining % (CK1α; [4]) | GSPT1 substrate protein remaining % (GSPT1; [4]) |
| --- | --- | --- | --- | --- | --- | --- | --- | --- | --- | --- | --- | --- | --- | --- |
| Cc1ccsc1C1=CCN(Cc2cccc3c2C(=O)N(C2CCC(=O)NC2=O)C3=O)CC1 (stereo not shown) [GT-04731, 2-(2,6-dioxopiperidin-3-yl)-4-((4-(3-methylthiophen-2-yl)-3,6-dihydropyridin-1(2H)-yl)methyl)isoindoline-1,3-dione] | – | 500 to 1000 nM | B (80%< substrate protein remaining %≤ 100%) | B (80%< substrate protein remaining %≤ 100%) | B (80%< substrate protein remaining %≤ 100%) | B (80%< substrate protein remaining %≤ 100%) | B (80%< substrate protein remaining %≤ 100%) | A (0% ≤ substrate protein remaining % ≤ 80%) | – | – | – | – | – | – |
| Cc1nc(C2=CCN(Cc3ccc4c(c3)C(=O)N(C3CCC(=O)NC3=O)C4=O)CC2)c2c3c(sc2n1)CCC3 (stereo not shown) [GT-06682, 2-(2,6-dioxopiperidin-3-yl)-5-((4-(2-methyl-6,7-dihydro-5H-cyclopenta[4,5]thieno[2,3-d]pyrimidin-4-yl)-3,6-dihydropyridin-1(2H)-yl)methyl)isoindoline-1,3-dione] | 1500 to 1900 nM | – | – | – | – | – | – | – | A (0% ≤ substrate protein remaining % ≤ 80%) | B (80%< substrate protein remaining %≤ 100%) | A (0% ≤ substrate protein remaining % ≤ 80%) | A (0% ≤ substrate protein remaining % ≤ 80%) | B (80%< substrate protein remaining %≤ 100%) | A (0% ≤ substrate protein remaining % ≤ 80%) |
| O=C1CCC(N2C(=O)c3ccc(CN4CCC(c5c[nH]c6ncccc56)CC4)cc3C2=O)C(=O)N1 (stereo not shown) [GT-06705, 5-((4-(1H-pyrrolo[2,3-b]pyridin-3-yl)piperidin-1-yl)methyl)-2-(2,6-dioxopiperidin-3-yl)isoindoline-1,3-dione] | 1500 to 1900 nM | – | – | – | – | – | – | – | A (0% ≤ substrate protein remaining % ≤ 80%) | B (80%< substrate protein remaining %≤ 100%) | B (80%< substrate protein remaining %≤ 100%) | B (80%< substrate protein remaining %≤ 100%) | B (80%< substrate protein remaining %≤ 100%) | A (0% ≤ substrate protein remaining % ≤ 80%) |
| O=C1CCC(N2Cc3cc(CNC45CC6CC(CC(C6)C4)C5)ccc3C2=O)C(=O)N1 (stereo not shown) [GT-06913, 3-(5-((((3s,5s,7s)-adamantan-1-yl)amino)methyl)-1-oxoisoindolin-2-yl)piperidine-2,6-dione] | 1500 to 1900 nM | – | – | – | – | – | – | – | A (0% ≤ substrate protein remaining % ≤ 80%) | A (0% ≤ substrate protein remaining % ≤ 80%) | A (0% ≤ substrate protein remaining % ≤ 80%) | B (80%< substrate protein remaining %≤ 100%) | A (0% ≤ substrate protein remaining % ≤ 80%) | A (0% ≤ substrate protein remaining % ≤ 80%) |
| CC1(C)[C@@H]2CC[C@]1(CS(=O)(=O)NCc1ccc3c(c1)CN(C1CCC(=O)NC1=O)C3=O)C(=O)C2 (stereo partly shown) [GT-06927] | 500 to 1000 nM | – | – | – | – | – | – | – | B (80%< substrate protein remaining %≤ 100%) | B (80%< substrate protein remaining %≤ 100%) | B (80%< substrate protein remaining %≤ 100%) | B (80%< substrate protein remaining %≤ 100%) | A (0% ≤ substrate protein remaining % ≤ 80%) | B (80%< substrate protein remaining %≤ 100%) |

Now from value to compound, other results behind:

| IC50 [1] | IC50 [2] | Compound | Weel substrate protein remaining % (WEE1; [3]) | IKZF 1 substrate protein remaining % (IKZF1; [3]) | IKZF2 substrate protein remaining % (IKZF2; [3]) | IKZF3 substrate protein remaining % (IKZF3; [3]) | CK1a substrate protein remaining % (CK1α; [3]) | GSPT1 substrate protein remaining % (GSPT1; [3]) | Weel substrate protein remaining % (WEE1; [4]) | IKZF 1 substrate protein remaining % (IKZF1; [4]) | IKZF2 substrate protein remaining % (IKZF2; [4]) | IKZF3 substrate protein remaining % (IKZF3; [4]) | CK1a substrate protein remaining % (CK1α; [4]) | GSPT1 substrate protein remaining % (GSPT1; [4]) |
| --- | --- | --- | --- | --- | --- | --- | --- | --- | --- | --- | --- | --- | --- | --- |
| < 500 nM | 50 to 100 nM | Cc1ccsc1N1CCN(Cc2ccc3c(c2)CN(C2CCC(=O)NC2=O)C3=O)CC1 (stereo not shown) [GT-04582, 3-(5-((4-(3-methylthiophen-2-yl)piperazin-1-yl)methyl)-1-oxoisoindolin-2-yl)piperidine-2,6-dione] | A (0% ≤ substrate protein remaining % ≤ 80%) | A (0% ≤ substrate protein remaining % ≤ 80%) | A (0% ≤ substrate protein remaining % ≤ 80%) | A (0% ≤ substrate protein remaining % ≤ 80%) | B (80%< substrate protein remaining %≤ 100%) | A (0% ≤ substrate protein remaining % ≤ 80%) | – | – | – | – | – | – |
| 500 to 1000 nM | 500 to 1000 nM | O=C1CCC(N2Cc3cc(CN4CCN(c5nccc(Cl)c5F)CC4)ccc3C2=O)C(=O)N1 (stereo not shown) [GT-04610, 3-(5-((4-(4-chloro-3-fluoropyridin-2-yl)piperazin-1-yl)methyl)-1-oxoisoindolin-2-yl)piperidine-2,6-dione] | A (0% ≤ substrate protein remaining % ≤ 80%) | A (0% ≤ substrate protein remaining % ≤ 80%) | A (0% ≤ substrate protein remaining % ≤ 80%) | A (0% ≤ substrate protein remaining % ≤ 80%) | A (0% ≤ substrate protein remaining % ≤ 80%) | A (0% ≤ substrate protein remaining % ≤ 80%) | – | – | – | – | – | – |
| 500 to 1000 nM | 50 to 100 nM | O=C1CCC(N2Cc3cc(CN4CCC(c5ccco5)CC4)ccc3C2=O)C(=O)N1 (stereo not shown) [GT-04618, 3-(5-((4-(furan-2-yl)piperidin-1-yl)methyl)-1-oxoisoindolin-2-yl)piperidine-2,6-dione] | A (0% ≤ substrate protein remaining % ≤ 80%) | A (0% ≤ substrate protein remaining % ≤ 80%) | A (0% ≤ substrate protein remaining % ≤ 80%) | A (0% ≤ substrate protein remaining % ≤ 80%) | B (80%< substrate protein remaining %≤ 100%) | A (0% ≤ substrate protein remaining % ≤ 80%) | – | – | – | – | – | – |
| 1000 to 1500 nM | – | O=C1CCC(N2C(=O)c3ccc(CN4CC=C(c5ncnc6scc(-c7ccccc7)c56)CC4)cc3C2=O)C(=O)N1 (stereo not shown) [GT-06676, 2-(2,6-dioxopiperidin-3-yl)-5-((4-(5-phenylthieno[2,3-d]pyrimidin-4-yl)-3,6-dihydropyridin-1(2H)-yl)methyl)isoindoline-1,3-dione] | – | – | – | – | – | – | A (0% ≤ substrate protein remaining % ≤ 80%) | B (80%< substrate protein remaining %≤ 100%) | B (80%< substrate protein remaining %≤ 100%) | B (80%< substrate protein remaining %≤ 100%) | A (0% ≤ substrate protein remaining % ≤ 80%) | B (80%< substrate protein remaining %≤ 100%) |
| 500 to 1000 nM | – | Cc1nc(C2=CCN(Cc3ccc4c(c3)C(=O)N(C3CCC(=O)NC3=O)C4=O)CC2)c2c(-c3ccccc3)csc2n1 (stereo not shown) [GT-06677, 2-(2,6-dioxopiperidin-3-yl)-5-((4-(2-methyl-5-phenylthieno[2,3-d]pyrimidin-4-yl)-3,6-dihydropyridin-1(2H)-yl)methyl)isoindoline-1,3-dione] | – | – | – | – | – | – | B (80%< substrate protein remaining %≤ 100%) | B (80%< substrate protein remaining %≤ 100%) | B (80%< substrate protein remaining %≤ 100%) | B (80%< substrate protein remaining %≤ 100%) | A (0% ≤ substrate protein remaining % ≤ 80%) | B (80%< substrate protein remaining %≤ 100%) |
